Measurements published in patent publication US7358064B2, “Kits for measuring cellular transmembrane potential changes” (Molecular Devices Corporation, priority 2001, dated 2008).

Assays:
[1] = target: T1, purinergic P2X2 ligand-gated ion channel (Homo sapiens, UniProt Q9UBL9); test: ATP dose response in FLIPR membrane potential assay with DiSBAC1(3); format: cell-based; conditions: ATP dose response in P2X2 cells loaded with DiSBAC1(3); worded as 'should be approximately'
T1 construct: expressed in transfected cells; host or cells: 1321N1 astrocytoma cells
T1 sequence (Q9UBL9 1-471): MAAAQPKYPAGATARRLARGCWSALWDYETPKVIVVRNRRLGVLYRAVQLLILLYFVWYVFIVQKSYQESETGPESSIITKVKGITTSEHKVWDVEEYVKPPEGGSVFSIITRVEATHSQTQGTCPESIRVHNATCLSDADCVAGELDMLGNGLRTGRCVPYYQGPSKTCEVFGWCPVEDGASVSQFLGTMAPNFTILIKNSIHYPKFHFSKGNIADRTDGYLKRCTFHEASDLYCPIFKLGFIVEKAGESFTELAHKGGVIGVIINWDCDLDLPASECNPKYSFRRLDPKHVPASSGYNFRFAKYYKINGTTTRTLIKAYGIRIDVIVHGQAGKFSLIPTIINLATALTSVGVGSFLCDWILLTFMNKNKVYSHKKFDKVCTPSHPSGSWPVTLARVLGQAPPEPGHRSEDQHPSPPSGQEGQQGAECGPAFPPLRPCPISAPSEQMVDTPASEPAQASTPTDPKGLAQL

P2X2 cells = test: FLIPR membrane potential assay, fluorescence response of dyes in P2X2 cells; format: cell-based; conditions: for Fluorescence enhancement by 10 μM ATP stimulation (in folds) / Response speed: P2X2 cells, FLIPR; for Response speed: ATP stimulation; for Response to membrane potential change (speed, in words): compared with other DiBAC/DiSBAC dyes; for Signal strength: compared with other members of the DiBAC and DiSBAC family, FLIPR and other fluorescence devices
Source text: This specific example illustrates how to use DiSBA1(3) in P2X2 cells in combination with the FLIPR™ fluorescent imaging plate reader sold by Molecular Devices Corp. of Sunnyvale, Calif. P2X2 cells are 1321 N1 astrocytoma cells transfected to overexpress the purinergic P2X2 ligand-gated ion channel. P2X2 belongs to a class of purinergic ion channels that pass calcium and sodium in response to purine, including adenosine 5′-triphosphate (ATP). P2X2 cells are propagated and maintained in DME (high glucose), 10% FCS, 1× Pen/Strep and 2 mM L-glutamine. Doubling time is approximately 36 hours. P2X2 cells should be split at a 1 to 2 ratio upon confluence. The cells should be carried for no more than 20 passages. When approaching this limit, a new frozen vial of cells should be resurrected. Following is a typical kit procedure: • 1. Plate 40,000 P2X2 cells in 100 μL per well for 96 well plates or 10,000 P2X2 cells in 25 μL per well for 384 well plates for overnight.
2. Prepare 1× Loading Buffer. • 2.1 To prepare the 1× Assay Buffer, pipette 10 mL of 10× Reagent Buffer (1× Hanks' Balance Saline Solution+20 mM HPEPES, pH 7.40) and dilute in 90 mL of distilled water. Adjust pH to 7.4 using 1.0 N NaOH and/or 1.0 N HCl. • 2.2 To prepare 10 mM stock solution of DiSBAC1(3), dissolve 3.8 mg DiSBAC1(3) in 1 mL DMSO • 2.3 To prepare 10% pluronic acid, dissolve 400 mg pluronic acid in 4 mL water. Heat to 37° C. to complete dissolution. • 2.4 To prepare 1× Loading Buffer, add 30 μL of stock DiSBAC1(3), 8 μL 10% pluronic acid, and 20.0 mg DB71 in the 1× FLIPR assay buffer. • 3. Load Cells with 1× Loading Buffer • 4. Remove cell plates from the incubator • 5. Add 100 μL of 1× Loading Buffer per well of 96-well plates or 25 μL per well of 384-well plates. • 6. Incubate plates at 37° C. for 30 minutes. • 7. Run the FLIPR Membrane Potential Assay • 7.1 Make 5× compound plate prior to running the FLIPR assay. Dissolve 27.5 mg of ATP (Sigma Cat# A3377) in 1 mL of sterile water to make a 50 mM stock solution. […] Choose p2x2.fcf for experimental setup in the FLIPR software. Set up the appropriate experiment parameters. • 7.3 After incubation, transfer the plates directly to FLIPR and begin the Membrane Potential Assay. • 8. Run FLIPR and perform data analysis.
DiSBAC1(3), DiSBAC2(3), DiSBAC3(3), DiSBAC4(3), DiBAC1(3) and DiBAC4(3) are dissolved in DMSO (1 mM). The stock solutions are respectively used to assay membrane potential changes in the P2X2 cells in combination with FLIPR™ as described in Example 2.

[2] = Octanol/water partition of DiBAC and DiSBAC dyes, read by absorption spectra; format: physicochemical; conditions: for Absorbance in Octanol / Absorbance in Water: 3 mM DMSO stock partitioned in 1:1 octanol/water; for Absorbance in Octanol: octanol layer; for Absorbance in Water: water layer; for Absorbance in Water/Absorbance in Octanol: 1:1 octanol/water partition; for Relative Values: water/octanol ratio relative to DiBAC1(3) (DiBAC dyes) or DiSBAC1(3) (DiSBAC dyes)
Protocol: (§1) DiSBAC1(3), DiSBAC2(3), DiSBAC3(3), DiSBAC4(3), DiBAC1(3) and DiBAC4(3) are dissolved in DMSO (3 mM). The DMSO stock solutions are respectively partitioned in 1:1 octanol/water mixture. The concentrations of the oxonol dyes in octanol and water layers are determined by absorption spectra.

[3] = format: physicochemical; conditions: compared with the other oxonol dyes
Protocol: as §1

PC12 = test: DiSBAC1(3) as fluorescent indicator of transmembrane potential depolarization of PC12 cells; format: cell-based, rat; conditions: 75 mM potassium gluconate, 2.5 μM dye, 200 μM Direct Blue 71
[4] = test system: voltage-gated sodium channels; format: cell-based, rat

Row | SMILES | EC50 [1] [nM] | Fluorescence enhancement by 10 μM ATP stimulation (in folds) (P2X2 cells) [folds] | Response speed (P2X2 cells) | Response to membrane potential change (speed, in words) (P2X2 cells) | Response to membrane potential change (speed, in words) (P2X2 cells; listed as DiBAC1 (3)) | Signal strength (P2X2 cells) | Absorbance in Octanol [2] | Absorbance in Water [2] | Absorbance in Water/Absorbance in Octanol [2] | Relative Values [2] | Water solubility [3] | Sensitivity to membrane potential change (P2X2 cells; compared with the rest of the DiSBACs) | Hydrophilicity ([2]; compared with the other oxonol dyes) | Fluorescence change on cell depolarization (PC12) | Change in membrane potential (fluorescence increase) upon potassium addition [4]
1 | Nc1ncnc2c1ncn2[C@@H]1O[C@H](COP(=O)(O)OP(=O)(O)OP(=O)(O)O)[C@@H](O)[C@H]1O [ATP, adenosine 5′-triphosphate] | 10 to 100 | – | – | – | – | – | – | – | – | – | – | – | – | – | –
2 | CN1C(=O)C(=CC=Cc2c(O)n(C)c(=O)n(C)c2=O)C(=O)N(C)C1=O [DiBAC1(3)] | – | 3.7 | fast | much faster response | faster response | stronger signal | 0.3104 | 1.297 | 4.179 | 1 | greater water solubility | – | – | – | –
3 | CCCCN1C(=O)C(=CC=Cc2c(O)n(CCCC)c(=O)n(CCCC)c2=O)C(=O)N(CCCC)C1=O [DiBAC4(3)] | – | 3.3 | slow | – | – | – | 2.854 | 0.002501 | 0.00088 | 0.00021 | – | – | – | – | –
4 | CN1C(=O)C(=CC=Cc2c(O)n(C)c(=S)n(C)c2=O)C(=O)N(C)C1=S [DiSBAC1(3), Bis-(1,3-dimethylthiobarbituric acid)trimethine oxonol] | – | 108.5 | fast | faster response | – | stronger signal | 0.9126 | 0.06147 | 0.0674 | 1 | – | much more sensitive | much more hydrophilic | increased DiSBAC1(3) fluorescence | –
5 | CCN1C(=O)C(=CC=Cc2c(O)n(CC)c(=S)n(CC)c2=O)C(=O)N(CC)C1=S [DiSBAC2(3)] | – | 38.6 | moderate | – | – | – | 2.187 | 0.01143 | 0.0052 | 0.078 | – | – | – | – | –
6 | CCCN1C(=O)C(=CC=Cc2c(O)n(CCC)c(=S)n(CCC)c2=O)C(=O)N(CCC)C1=S [DiSBAC3(3)] | – | 14.5 | slow | – | – | – | 4.331 | 0.002256 | 0.0005 | 0.0077 | – | – | – | – | –
7 | CCCCN1C(=O)C(=CC=Cc2c(O)n(CCCC)c(=S)n(CCCC)c2=O)C(=O)N(CCCC)C1=S [DiSBAC4(3)] | – | 2.3 | slow | – | – | – | 3.226 | 0.003318 | <0.0010 | <0.0077 | – | – | – | – | –
8 | NC1=N[C@H](O)[C@H]2[C@H]3O[C@]4(O)O[C@@H]([C@@H](O)[C@@]2(N1)[C@@H]4O)[C@]3(O)CO [TTX, tetrodotoxin] | – | – | – | – | – | – | – | – | – | – | – | – | – | – | smaller increase in fluorescence
